According to patent US20250127863A1, “ANTIMICROBIAL PEPTIDE FOR ONYCHOMYCOSIS” (CBMR SCIENTIFIC NANOSCIENCE B.V., priority 2019, published 2025):
No end group written: not given here.

Legend:
C. albicans ATCC 10231 = assay: MIC90 growth inhibition; assay type: cell-based, Candida albicans; conditions: RPMI 1640 one-fourth strength
Procedure: (§1) The minimum inhibitory concentration (MIC) value is defined as the lowest sample concentration that inhibited growth. In the Examples, the MIC90 value is presented, which MIC90 values are determined according to established methods known to the person with the skills in the relevant art. Experiments; 1×10E5 CFU of various strains/ml were incubated for 24-48 h at 37° C. in 4× diluted medium of RPMI 1640 with the indicated concentrations of antimicrobial peptide hLF(1-11) [SEQ ID NO: 3]. As controls various strains cells were incubated for 24-48 h at 37° C. with no agent (antimicrobial peptide), and subsequently, growth of the microbial organism (e.g. yeast, bacterium) was monitored by using spectrophotometry with a spectrophotometer at 620 nm. […] ND=Not done. Representative single assay data are listed rather than a range, for clarity reasons and for ease of comparison of peptide efficacy. The MIC was calculated as the lowest antibiotic (antimicrobial peptide) concentration at which growth of the assessed yeast or bacterium (microbe) was inhibited (inhibitory concentration IC90).

C. albicans CBS-562 = assay: MIC90 growth inhibition; assay type: cell-based, Candida albicans; conditions: RPMI 1640 one-fourth strength
Procedure: as §1

C. albicans AA (LUMC) = assay: MIC90 growth inhibition; assay type: cell-based, Candida albicans; conditions: RPMI 1640 one-fourth strength
Procedure: as §1

C. albicans CMC-1968 = assay: MIC90 growth inhibition; assay type: cell-based, Candida albicans; conditions: RPMI 1640 one-fourth strength
Procedure: as §1

C. albicans (WT) = assay: MIC90 growth inhibition; assay type: cell-based, Candida albicans; conditions: RPMI 1640 one-fourth strength
Procedure: as §1

C. krusei CMC-2002 = assay: MIC90 growth inhibition; assay type: cell-based, Candida krusei; conditions: RPMI 1640 one-fourth strength
Procedure: as §1

C. krusei spp = assay: MIC90 growth inhibition; assay type: cell-based, Candida krusei; conditions: RPMI 1640 one-fourth strength
Procedure: as §1

C. krusei (LUMC) = assay: MIC90 growth inhibition; assay type: cell-based, Candida krusei; conditions: RPMI 1640 one-fourth strength
Procedure: as §1

Trichoderma viride = assay: IC50 growth inhibition; assay type: cell-based
C. haemulonii = assay: MIC90 growth inhibition; assay type: cell-based, Candida haemulonii; conditions: RPMI 1640 one-fourth strength
Procedure: as §1

onychomycosis [1] = assay: Clinical study for treating onychomycosis (Example 2); assay type: in vivo, human; conditions: twice per day
Procedure: A peptide solution was tested for its treatment effect on onychomycosis in human subjects. The peptide was antimicrobial peptide hLF1-11 (GRRRRSVQWCA) [SEQ ID NO: 3] in water comprising 0.01% by volume acetic acid, based on the total volume of the peptide solution.
Forty two patients are treated with the peptide solution; 20 patients (4 male/16 female) were treated with a solution comprising a low concentration of 3 mg/L of the peptide (dose twice per day), 10 patients (3 male/7 female) were treated with the peptide solution with a high concentration of 30 mg/L of the peptide (dose twice per day) and 12 patients (8 male/4 female) with a combination of high and low concentration (4 weeks 30 mg/L following by 3 mg/L continuing treatment, dose twice per day).
Patients were categorized into groups based on their skin and nail disorders (visible inspection by independent pedicure); low to mild fungal nail problems (treatment group with 3 mg/L for patients in this group), mild to severe fungal nail problems (combination group 30 mg/L-3 mg/L) and highly infected onychomycosis (30 mg/L group).
Results: 90% of the patients observed an improvement in the appearance of the nail after 2 weeks, 92% observed improvement after 4-10 weeks of treatment. Complete recovery was visible for >98% of the patients after 24 weeks. No exclusions were made. Some patients with severe infections (diabetic/autoimmune related) in the high/low combination treatment group were treated longer with the peptide at high dose. All patients continued the treatment as long as it takes to recover completely from the fungal nail infection (in general, relating to the outgrowth of a complete new nail). Duration of the trial was 6-12 months (depending on the infection and the outgrowth of the nail).

onychomycosis [2] = assay: Application of the composition by human subjects (Example 1); assay type: in vivo
Procedure: The concentration of the antimicrobial peptide in the composition used for the treatment of onychomycosis by human subjects, was 30 mg/l ([…]).
The composition used comprises the antimicrobial peptide hLF1-11 (GRRRRSVQWCA) [SEQ ID NO: 3] and is a clear colorless liquid in a (glass) bottle with a dropper to facilitate application to the nail. […] The antimicrobial peptide is completely biodegradable.
The composition is applied twice a day to the affected nail and cuticle, preferably in the morning and in the evening. Hold the tip of the dropper above the nail. Avoid direct contact between the dropper providing the solution and the infected nail to keep liquid clean. Squeeze the tube gently and drop the drop onto the cuticle/proximal fold. It is preferred to cover the whole nail with a thin layer of the solution. In particular cases it is important that the solution is also applied under the edge of the affected nail (on the distal nail bed) e.g. with a cotton swab, in particular when the infection started from there. Allow the nail to dry for a few minutes after application. The treatment duration varies depending on the severity of the infection; in many cases 3-6 months of treatment may be necessary. For optimal results, continue the treatment until a new healthy nail has fully grown. […] Reference is made to FIG. 1.

Rhizoctonia solani = assay: IC50 growth inhibition; assay type: cell-based
[3] = test system: Crypt. neoform. ▴ SKN7 (UMC); assay: MIC90 growth inhibition; assay type: cell-based, Cryptococcus neoformans; conditions: genetically modified type species, RPMI 1640 one-fourth strength
Procedure: as §1

C. tropicalis CBS-94 = assay: MIC90 growth inhibition; assay type: cell-based, Candida tropicalis; conditions: RPMI 1640 one-fourth strength
Procedure: as §1

C. tropicalis spp. = assay: MIC90 growth inhibition; assay type: cell-based, Candida tropicalis; conditions: RPMI 1640 one-fourth strength
Procedure: as §1

C. tropicalis CMC-2041 = assay: MIC90 growth inhibition; assay type: cell-based, Candida tropicalis; conditions: RPMI 1640 one-fourth strength
Procedure: as §1

C. tropicalis (LUMC) = assay: MIC90 growth inhibition; assay type: cell-based, Candida tropicalis; conditions: RPMI 1640 one-fourth strength
Procedure: as §1

Sclerotinia sclerotiorum = assay: IC50 growth inhibition; assay type: cell-based

Sequence: GRRRRSVQWCA [hLF1-11, Gly Arg Arg Arg Arg Ser Val Gln Trp Cys Ala]
- Inhibitory concentration MIC (MIC90) (C. albicans ATCC 10231): MIC = 25 μg/mL
- Inhibitory concentration MIC (MIC90) (C. albicans CBS-562): MIC = 25 μg/mL
- Inhibitory concentration MIC (MIC90) (C. albicans AA (LUMC)): MIC = 25 μg/mL
- Inhibitory concentration MIC (MIC90) (C. albicans CMC-1968): MIC = 25 μg/mL
- Inhibitory concentration MIC (MIC90) (C. albicans (WT)): MIC = 25 μg/ml
- Inhibitory concentration MIC (MIC90) (C. krusei CMC-2002): MIC = 25 μg/mL
- Inhibitory concentration MIC (MIC90) (C. krusei spp): MIC = 10-25 μg/ml
- Inhibitory concentration MIC (MIC90) (C. krusei (LUMC)): MIC = 25 μg/mL
- Inhibitory concentration IC50 (Trichoderma viride): IC50 = 952 μg/mL
- Inhibitory concentration MIC (MIC90) (C. haemulonii): MIC = 25 μg/mL
- patients who observed an improvement in the appearance of the nail (onychomycosis [1]; after 2 weeks, 3 mg/L, 30 mg/L or combination, 42 patients): 90%
- patients who observed improvement (onychomycosis [1]; after 4-10 weeks of treatment): 92%
- patients with complete recovery visible (onychomycosis [1]; after 24 weeks): > 98%
- recurrent infection in treated patients (onychomycosis [2]; after 4 months or even longer): do not show signs of recurrent infection
- time to first visible improvements (onychomycosis [2]; twice daily application, 30 mg/l composition): two to four
- Inhibitory concentration IC50 (Rhizoctonia solani): IC50 = 121 μg/mL
- Inhibitory concentration MIC (MIC90) [3]: MIC = 6.3 μg/ml
- Inhibitory concentration MIC (MIC90) (C. tropicalis CBS-94; C. tropicalis CBS-94, second listing): MIC = 50 μg/ml
- Inhibitory concentration MIC (MIC90) (C. tropicalis CBS-94): MIC = 50 μg/mL
- Inhibitory concentration MIC (MIC90) (C. tropicalis spp.): MIC = 12.5-100 μg/mL
- Inhibitory concentration MIC (MIC90) (C. tropicalis CMC-2041; C. tropicalis CMC-2041, second listing): MIC = 50 μg/ml
- Inhibitory concentration MIC (MIC90) (C. tropicalis CMC-2041): MIC = 50 μg/mL
- Inhibitory concentration MIC (MIC90) (C. tropicalis (LUMC)): MIC = 25 μg/mL
- Inhibitory concentration MIC (MIC90) (C. tropicalis (LUMC); second listing): MIC = 25 μg/ml
- Inhibitory concentration IC50 (Sclerotinia sclerotiorum): IC50 = 31 μg/mL
